{"source": "paper PMC10949930", "about": "(ACS Chemical Biology, 2024)", "key": {"S. aureus": {"tested_on": "S. aureus", "conditions": "atropisomers compared; cited from earlier work"}, "[1]": {"tested_on": "GFP-MinD in B. subtilis cells", "assay": "GFP-MinD localization", "assay_type": "cell-based, Bacillus subtilis", "conditions": "10 min, 1× MIC, CCCP 100 μM"}, "B. subtilis 168 cells": {"tested_on": "B. subtilis 168 cells", "assay": "Membrane dye FM 5–95 labeling after compound exposure", "assay_type": "cell-based, Bacillus subtilis", "conditions": "B. subtilis 168, 1× MIC, 15 min; CCCP 100 μM"}, "S. aureus NCTC8325 cells": {"tested_on": "S. aureus NCTC8325 cells", "assay": "Protonophore assay, intracellular pH by BCECF AM", "assay_type": "cell-based, Staphylococcus aureus", "conditions": "1× MIC, 10 min; for intracellular pH after compound addition: dropped from pH 7.8"}, "B. subtilis 168": {"tested_on": "B. subtilis 168", "assay": "MIC, broth microdilution", "assay_type": "cell-based", "conditions": "Bacillus subtilis, 168, 20 h, read-out: MIC B. subtilis 168"}, "S. aureus NCTC8325 [2]": {"tested_on": "S. aureus NCTC8325", "assay": "MIC, broth microdilution", "assay_type": "cell-based", "conditions": "Staphylococcus aureus, NCTC8325, 20 h, read-out: MIC S. aureus NCTC8325"}, "S. aureus NCTC8325 [3]": {"tested_on": "S. aureus NCTC8325", "assay": "Pore-forming assay, SYTO9/propidium iodide costaining", "assay_type": "cell-based, Staphylococcus aureus", "conditions": "4× MIC; nisin 100 μg mL^–1; 35 min"}}, "data": [{"molecule": "O=C(c1ccccc1O)c1[nH]c(Cl)c(Cl)c1-n1c(C(=O)c2ccccc2O)cc(Cl)c1Cl", "note": "(atropisomer, axis not shown; (M)) [(−)-(M)-MarA]", "values": [{"measurement": "potency against S. aureus", "setting": "S. aureus", "value": "equal potency"}]}, {"molecule": "N#CC(C#N)=NNc1cccc(Cl)c1", "note": "[CCCP, carbonyl cyanide m-chlorophenyl hydrazone]", "values": [{"measurement": "GFP-MinD localization after treatment", "setting": "[1]", "value": "diffuse and spotty"}, {"measurement": "localization of membrane dye FM 5–95 after treatment", "setting": "B. subtilis 168 cells", "value": "aggregated, inhomogeneous, “spotty” localization"}]}, {"molecule": "Oc1c(Br)cc(Br)cc1-c1[nH]c(Br)c(Br)c1Br", "note": "[compound 2, pentabromopseudilin]", "values": [{"measurement": "drop of intracellular pH (Δ)", "setting": "S. aureus NCTC8325 cells", "value": 0.2, "unit": "pH units"}, {"measurement": "intracellular pH after compound addition", "setting": "S. aureus NCTC8325 cells", "value": 7.6}, {"measurement": "MIC", "setting": "B. subtilis 168", "value": 16, "unit": "ng/mL"}, {"measurement": "MIC", "setting": "S. aureus NCTC8325 [2]", "value": 16, "unit": "ng/mL"}]}, {"molecule": "Oc1c(Cl)cc(Cl)cc1-c1[nH]c(Cl)c(Cl)c1Cl", "note": "[compound 3, pentachloropseudilin]", "values": [{"measurement": "drop of intracellular pH (Δ)", "setting": "S. aureus NCTC8325 cells", "value": 0.2, "unit": "pH units"}, {"measurement": "intracellular pH after compound addition", "setting": "S. aureus NCTC8325 cells", "value": 7.6}, {"measurement": "MIC", "setting": "B. subtilis 168", "value": 4, "unit": "ng/mL"}, {"measurement": "MIC", "setting": "S. aureus NCTC8325 [2]", "value": 4, "unit": "ng/mL"}, {"measurement": "membrane integrity / pore formation (SYTO9/propidium iodide)", "setting": "S. aureus NCTC8325 [3]", "value": "only green fluorescence"}]}, {"molecule": "nisin [reference compound]", "values": [{"measurement": "membrane integrity / pore formation (SYTO9/propidium iodide)", "setting": "S. aureus NCTC8325 [3]", "value": "clear red fluorescence indicative of pore formation"}]}]}
